These are literature values, as cited in patent publication US20040180034A1, “Anthelmintic resinates and a method for their preparation” (priority 2003, published 2004).

On to `O=C(C1CCCCC1)N1CC(=O)N2CCc3ccccc3C2C1` (centres unmarked) [Praziquantel, 4H-Pyrazino[2,1-a]isoquinolin-4-one, 2-(cyclohexylcarbonyl)-1,2,3,6,7,11b-hexahydro-(9CI)], for which the “cats experiencing weakness, salivation, or nausea” value (after injection) was “approximately one cat in ten”. For the setting “oral form”, the animals experiencing nausea result was “at least one out of twenty”.
